The test system of assay [1] is Phospho-Akt(Ser473). The assay can be described thus: Dose response in SKOV3 cells as determined by in-cell Western. In kind it is cell-based. The following applies: Homo sapiens, SK-OV-3; SKOV3 cells, 1 hr; read-out: pAKT Inhibition in cell Western. The method, then: Dose Response in SKOV3 Cells as Determined by in-Cell Western
Twenty four hours later the media was removed and replaced with 100 ul media containing test compound or control compound and cells were returned to the incubator for 1 hr. At the end of the hour, the media was removed and the cells were washed once with PBS, then fixed for 20 minutes at room temperature in 4% formaldehyde in PBS. The formaldehyde was removed and cells were washed 5 times for 5 minutes with 100 ul of Permeabilization Buffer (PBS+0.1% Triton X-100) at room temperature with gentle shaking. The last wash was removed and replaced with 150 ul of Odyssey Blocking Buffer (Li-Cor, Lincoln, Nebr.) and incubated for 90 minutes at room temperature with gentle shaking.
The Blocking Buffer was then replaced with 50 ul of primary antibody mix (rabbit anti-Phospho-Akt(Ser473) at 1:100 (Cell Signaling Technology, Boston, Mass.) and mouse anti-tubulin at 1:5000 (Sigma Aldrich, St. Louis, Mo.) diluted in Odyssey Blocking Buffer) and incubated overnight at room temperature with gentle shaking.
The next morning, the antibody mix was removed and the wells were washed 5 times for 5 minutes with PBS+0.1% Tween-20. The last wash was replaced with 50 ul of secondary antibody mix (goat anti-rabbit-IRDye-680 and goat anti-mouse-IRDye-800 (Li-Cor), both diluted 1:1000 in Odyssey Blocking Buffer+0.2% Tween-20) and incubated for 1 hour at room temperature with gentle shaking. The antibody mix was removed and the wells were washed 5 times for 5 minutes in PBS+0.1% Tween-20, then 1 time with ddH2O.
The plates were scanned on an Odyssey machine (Li-Cor) with a 3 mm focus offset at an intensity of 8 in both channels and the data was analyzed using the Odyssey software.

The target in assay [2] is T1, PI3Kα (p110α/p85α) (Homo sapiens, UniProt P42336).
T1 construct: purchased BPS Bioscience (San Diego, Calif.) or Millipore (Billerica, Mass.)
T1 sequence (P42336 whole entry): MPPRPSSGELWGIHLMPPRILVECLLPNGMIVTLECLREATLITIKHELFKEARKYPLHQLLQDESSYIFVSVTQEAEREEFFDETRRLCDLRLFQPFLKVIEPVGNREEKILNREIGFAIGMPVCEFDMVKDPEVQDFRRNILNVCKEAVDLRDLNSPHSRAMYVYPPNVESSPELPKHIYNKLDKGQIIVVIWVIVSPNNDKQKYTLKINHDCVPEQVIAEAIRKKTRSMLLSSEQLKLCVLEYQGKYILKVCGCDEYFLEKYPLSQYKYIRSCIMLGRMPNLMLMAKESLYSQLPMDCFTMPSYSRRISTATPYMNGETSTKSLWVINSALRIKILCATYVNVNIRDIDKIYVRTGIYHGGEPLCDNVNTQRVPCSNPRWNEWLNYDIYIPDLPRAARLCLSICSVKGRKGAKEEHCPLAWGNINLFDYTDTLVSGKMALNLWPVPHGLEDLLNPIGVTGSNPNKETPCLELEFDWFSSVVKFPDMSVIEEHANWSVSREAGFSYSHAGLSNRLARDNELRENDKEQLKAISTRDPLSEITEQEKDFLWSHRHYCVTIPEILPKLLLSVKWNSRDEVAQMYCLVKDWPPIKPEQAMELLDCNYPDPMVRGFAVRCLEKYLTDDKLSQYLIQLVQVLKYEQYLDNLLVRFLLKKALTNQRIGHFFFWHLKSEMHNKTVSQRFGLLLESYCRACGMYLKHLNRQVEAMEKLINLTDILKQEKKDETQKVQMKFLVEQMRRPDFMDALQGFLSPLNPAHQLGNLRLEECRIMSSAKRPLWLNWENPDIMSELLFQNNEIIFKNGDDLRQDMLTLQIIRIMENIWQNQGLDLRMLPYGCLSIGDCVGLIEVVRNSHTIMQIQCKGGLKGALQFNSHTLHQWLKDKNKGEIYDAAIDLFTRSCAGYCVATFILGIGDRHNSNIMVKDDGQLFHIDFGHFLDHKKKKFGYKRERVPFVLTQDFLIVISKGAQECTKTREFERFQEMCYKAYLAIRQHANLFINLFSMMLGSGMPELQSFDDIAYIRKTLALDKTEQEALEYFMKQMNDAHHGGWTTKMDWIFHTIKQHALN
T1 sequence (P27986 whole entry partner): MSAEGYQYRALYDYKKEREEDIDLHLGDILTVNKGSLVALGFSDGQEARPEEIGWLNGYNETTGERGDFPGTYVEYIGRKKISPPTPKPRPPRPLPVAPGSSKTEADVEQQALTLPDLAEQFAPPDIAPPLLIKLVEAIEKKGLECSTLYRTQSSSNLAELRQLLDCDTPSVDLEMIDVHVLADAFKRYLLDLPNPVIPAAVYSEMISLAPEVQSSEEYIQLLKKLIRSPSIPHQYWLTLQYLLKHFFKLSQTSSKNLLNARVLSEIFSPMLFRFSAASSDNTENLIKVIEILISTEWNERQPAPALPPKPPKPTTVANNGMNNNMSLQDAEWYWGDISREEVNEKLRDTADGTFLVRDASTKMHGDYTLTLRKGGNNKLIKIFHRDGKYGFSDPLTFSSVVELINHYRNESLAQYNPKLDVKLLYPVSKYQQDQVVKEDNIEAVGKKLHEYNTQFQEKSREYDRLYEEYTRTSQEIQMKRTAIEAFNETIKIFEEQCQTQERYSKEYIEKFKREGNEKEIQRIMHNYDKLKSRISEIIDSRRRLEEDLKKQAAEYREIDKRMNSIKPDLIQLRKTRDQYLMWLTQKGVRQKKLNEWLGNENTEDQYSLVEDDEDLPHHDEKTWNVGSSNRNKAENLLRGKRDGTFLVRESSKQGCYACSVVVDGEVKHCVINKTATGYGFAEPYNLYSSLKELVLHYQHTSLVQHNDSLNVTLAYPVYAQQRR
The assay can be described thus: HTRF assay, potency against active PI3Kα. The following applies: HTRF; [ATP]=50 μM, [di-C8-PIP2]=10 μM; 30 min pre-incubation; read-out: PI3Kα Inhibition. Format: biochemical. The procedure, abridged: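 IC50 came from a variable-slope fit of % inhibition, calculated from the HTRF emission ratio relative to wells with and without enzyme. Reactions with the active enzyme complex ran 30-60 minutes at 25 °C after ATP addition before stop and detection reagents.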
A general note: Time-resolved FRET reads energy transfer from a long-lived donor to a nearby acceptor.

For the molecule `O=C(/C=C/c1ccccc1F)CCC(=O)N1CCN(Cc2cc3nc(-c4cccc5[nH]ncc45)nc(N4CCOCC4)c3s2)CC1` [II-a-140, (E)-1-(4-((2-(1H-indazol-4-yl)-4-morpholinothieno[3,2-d]pyrimidin-6-yl)methyl)piperazin-1-yl)-6-(2-fluorophenyl)hex-5-ene-1,4-dione], the EC50 in assay [1] fell in the range of 100 to 1000 nM. Moreover, the IC50 in assay [2] fell in the range of 10 to 100 nM.
For `C=CC(=O)Nc1ccc(C#Cc2cc(-c3cnc(N)nc3)nc(N3CCOCC3)c2)cc1` [XII-4, N-(4-((2-(2-aminopyrimidin-5-yl)-6-morpholinopyridin-4-yl)ethynyl)phenyl)acrylamide], in assay [1], the EC50 was in the range of 10 to 100 nM. Also, the IC50 in assay [2] was in the range of 10 to 100 nM.
Regarding `C=C(C)C(=O)c1ccc(C(=O)N2CC=C(c3cc(-c4cnc(N)nc4)nc(N4CCOCC4)c3)CC2)cc1` [XII-49, 1-(4-(4-(2-(2-aminopyrimidin-5-yl)-6-morpholinopyridin-4-yl)-1,2,3,6-tetrahydropyridine-1-carbonyl)phenyl)-2-methylprop-2-en-1-one], the EC50 in assay [1] fell in the range of 100 to 1000 nM. In assay [2], the IC50 was in the range of 10 to 100 nM.
For `CC(C)=CC(=O)c1ccc(C(=O)N2CC=C(c3cc(-c4cnc(N)nc4)nc(N4CCOCC4)c3)CC2)cc1` [XII-50, 1-(4-(4-(2-(2-aminopyrimidin-5-yl)-6-morpholinopyridin-4-yl)-1,2,3,6-tetrahydropyridine-1-carbonyl)phenyl)-3-methylbut-2-en-1-one] the same measures were 100 to 1000 nM and 100 to 1000 nM.
Regarding `CC(C)=CC(=O)CCCC(=O)N(C)Cc1cc2nc(-c3cnc(N)nc3)nc(N3CCOCC3)c2s1` [II-a-174, N-((2-(2-aminopyrimidin-5-yl)-4-morpholinothieno[3,2-d]pyrimidin-6-yl)methyl)-N,7-dimethyl-5-oxooct-6-enamide], the EC50 in assay [1] is at most 10 nM. The IC50 in assay [2] was in the range of 10 to 100 nM.
Take `C=CC(=O)Nc1ccc(C(=O)N2CCC(n3ncc4c(N5CCOCC5)nc(-c5cnc(N)nc5)nc43)CC2)cc1` [VII-12, N-(4-(4-(6-(2-aminopyrimidin-5-yl)-4-morpholino-1H-pyrazolo[3,4-d]pyrimidin-1-yl)piperidine-1-carbonyl)phenyl)acrylamide]: the EC50 in assay [1] lay in the range of 10 to 100 nM. In addition, in assay [2], the IC50 fell in the range of 100 to 1000 nM.
`O=C(/C=C/c1cccnc1)CCC(=O)N1CCN(Cc2cc3nc(-c4cccc5[nH]ncc45)nc(N4CCOCC4)c3s2)CC1` [II-a-132, (E)-1-(4-((2-(1H-indazol-4-yl)-4-morpholinothieno[3,2-d]pyrimidin-6-yl)methyl)piperazin-1-yl)-6-(pyridin-3-yl)hex-5-ene-1,4-dione]: the EC50 in assay [1] lay within 10 to 100 nM. Further, the IC50 in assay [2] lay in the range of 100 to 1000 nM.
With `C/C=C/C(=O)CCCC(=O)Nc1ccc(S(=O)(=O)Nc2cc(-c3ccc4nccc(-c5ccncc5)c4c3)cnc2OC)cc1` [X-1, (E)-N-(4-(N-(2-methoxy-5-(4-(pyridin-4-yl)quinolin-6-yl)pyridin-3-yl)sulfamoyl)phenyl)-5-oxooct-6-enamide], the EC50 in assay [1] was at most 10 nM. Besides, the IC50 in assay [2] is 100 to 1000 nM.
In the case of `C=CC(=O)Nc1cccc(N2CC=C(c3cc(-c4cnc(N)nc4)nc(N4CCOCC4)c3)CC2)c1` [XII-48], the EC50 in assay [1] lay in the range of 100 to 1000 nM. Besides, in assay [2], the IC50 lay in the range of 100 to 1000 nM.
Turning to `C=CC(=O)Nc1cccc(C(=O)N2CC=C(c3cc(-c4cnc(N)nc4)nc(N4CCOCC4)c3)CC2)c1` [XII-47, N-(3-(4-(2-(2-aminopyrimidin-5-yl)-6-morpholinopyridin-4-yl)-1,2,3,6-tetrahydropyridine-1-carbonyl)phenyl)acrylamide], in assay [1], the EC50 is 100 to 1000 nM. Moreover, the IC50 in assay [2] lay in the range of 100 to 1000 nM.
For the molecule `C=CC(=O)Nc1ccc(OCc2cc(-c3cnc(N)nc3)nc(N3CCOCC3)c2)cc1` [XII-5, N-(4-((2-(2-aminopyrimidin-5-yl)-6-morpholinopyridin-4-yl)methoxy)phenyl)acrylamide], the EC50 in assay [1] lay in the range of 10 to 100 nM. Further, the IC50 in assay [2] was 100 to 1000 nM.
As to `COC/C=C(\C)C(=O)CCC(=O)N1CCN(Cc2cc3nc(-c4cccc5[nH]ncc45)nc(N4CCOCC4)c3s2)CC1` [II-a-161, (E)-1-(4-((2-(1H-indazol-4-yl)-4-morpholinothieno[3,2-d]pyrimidin-6-yl)methyl)piperazin-1-yl)-7-methoxy-5-methylhept-5-ene-1,4-dione], the EC50 in assay [1] was at most 10 nM. Besides, the IC50 in assay [2] fell in the range of 100 to 1000 nM.
Turning to `C/C=C/C(=O)CCC(=O)N1CCC(O)(CCc2cc3nc(-c4cccc(O)c4)nc(N4CCOCC4)c3s2)CC1` [II-a-123, (E)-1-(4-hydroxy-4-(2-(2-(3-hydroxyphenyl)-4-morpholinothieno[3,2-d]pyrimidin-6-yl)ethyl)piperidin-1-yl)hept-5-ene-1,4-dione], the EC50 in assay [1] is 10 to 100 nM. Also, the IC50 in assay [2] is below 10 nM.
As for `Cc1ccc(/C=C/C(=O)CCC(=O)N2CCN(Cc3cc4nc(-c5cccc6[nH]ncc56)nc(N5CCOCC5)c4s3)CC2)cc1` [II-a-139, (E)-1-(4-((2-(1H-indazol-4-yl)-4-morpholinothieno[3,2-d]pyrimidin-6-yl)methyl)piperazin-1-yl)-6-p-tolylhex-5-ene-1,4-dione], the EC50 in assay [1] was in the range of 100 to 1000 nM. Also, the IC50 in assay [2] fell in the range of 10 to 100 nM.
As for `C/C=C/C(=O)CCC(=O)N1CCC(n2ncc3c(N4CCOCC4)nc(-c4ccc(NC(=O)NC)cc4)nc32)CC1` [VII-7, (E)-1-methyl-3-(4-(4-morpholino-1-(1-(4-oxohept-5-enoyl)piperidin-4-yl)-1H-pyrazolo[3,4-d]pyrimidin-6-yl)phenyl)urea], the EC50 in assay [1] is 100 to 1000 nM. Also, the IC50 in assay [2] is 100 to 1000 nM.
Turning to `C=CC(=O)Nc1ccc(C(=O)N2CC=C(c3cc(-c4cnc(N)nc4)nc(N4CCOCC4)c3)CC2)cc1` [XII-46, N-(4-(4-(2-(2-aminopyrimidin-5-yl)-6-morpholinopyridin-4-yl)-1,2,3,6-tetrahydropyridine-1-carbonyl)phenyl)acrylamide], the EC50 in assay [1] fell in the range of 100 to 1000 nM. The IC50 in assay [2] lay in the range of 100 to 1000 nM.
In the case of `C/C=C/C(=O)CCC(=O)NCc1ccc(-c2cc3nc(-c4cccc5[nH]ncc45)nc(N4CCOCC4)c3s2)cc1` [II-a-115, (E)-N-(4-(2-(1H-indazol-4-yl)-4-morpholinothieno[3,2-d]pyrimidin-6-yl)benzyl)-4-oxohept-5-enamide], in assay [1], the EC50 lay within 100 to 1000 nM. Further, in assay [2], the IC50 lay within 10 to 100 nM.
For `Cc1ccccc1/C=C/C(=O)CCC(=O)N1CCN(Cc2cc3nc(-c4cccc5[nH]ncc45)nc(N4CCOCC4)c3s2)CC1` [II-a-138, (E)-1-(4-((2-(1H-indazol-4-yl)-4-morpholinothieno[3,2-d]pyrimidin-6-yl)methyl)piperazin-1-yl)-6-o-tolylhex-5-ene-1,4-dione] the same measures were 100 to 1000 nM and 10 to 100 nM.
`Cn1cncc1/C=C/C(=O)CCC(=O)N1CCN(Cc2cc3nc(-c4cccc5[nH]ncc45)nc(N4CCOCC4)c3s2)CC1` [II-a-130, (E)-1-(4-((2-(1H-indazol-4-yl)-4-morpholinothieno[3,2-d]pyrimidin-6-yl)methyl)piperazin-1-yl)-6-(1-methyl-1H-imidazol-5-yl)hex-5-ene-1,4-dione]: the EC50 in assay [1] fell in the range of 10 to 100 nM. Moreover, the IC50 in assay [2] was 100 to 1000 nM.
For the molecule `COc1ccc(-c2nn(C3CCN(C(=O)CCC(=O)/C=C/c4ccccc4)CC3)c3ncnc(N)c23)cc1OC` [XI-3, (E)-1-(4-(4-amino-3-(3,4-dimethoxyphenyl)-1H-pyrazolo[3,4-d]pyrimidin-1-yl)piperidin-1-yl)-6-phenylhex-5-ene-1,4-dione], in assay [1], the EC50 is at least 1000 nM. Further, in assay [2], the IC50 lay in the range of 100 to 1000 nM.
As for `C=CC(=O)Nc1ccc(N2CCN(C(=O)c3cc4nc(-c5cccc(O)c5)nc(N5CCOCC5)c4s3)CC2)cc1` [II-a-127, N-(4-(4-(2-(3-hydroxyphenyl)-4-morpholinothieno[3,2-d]pyrimidine-6-carbonyl)piperazin-1-yl)phenyl)acrylamide], the EC50 in assay [1] was at most 10 nM. In assay [2], the IC50 is 100 to 1000 nM.
For `C=CC(=O)Nc1ccc(C(=O)N(C)Cc2cc3nc(-c4cnc(N)nc4)nc(N4CCOCC4)c3s2)cc1` [II-a-175, 4-acrylamido-N-((2-(2-aminopyrimidin-5-yl)-4-morpholinothieno[3,2-d]pyrimidin-6-yl)methyl)-N-methylbenzamide], in that order: at most 10 nM and 10 to 100 nM.
As for `O=C(/C=C/c1ccccn1)CCC(=O)N1CCN(Cc2cc3nc(-c4cccc5[nH]ncc45)nc(N4CCOCC4)c3s2)CC1` [II-a-133, (E)-1-(4-((2-(1H-indazol-4-yl)-4-morpholinothieno[3,2-d]pyrimidin-6-yl)methyl)piperazin-1-yl)-6-(pyridin-2-yl)hex-5-ene-1,4-dione], the EC50 in assay [1] was 10 to 100 nM. The IC50 in assay [2] lay within 100 to 1000 nM.

Source of the values: US20110230476A1, “PI3 KINASE INHIBITORS AND USES THEREOF” (AVILA THERAPEUTICS, INC., priority 2009, published 2011).
